Results taken from patent US10028992B2, “Methods of treating muscular dystrophy” (BOARD OF REGENTS OF THE NEVADA SYSTEM OF HIGHER EDUCATION …, priority 2012, dated 2018).
Values belong to the compound of their own block, whether it stands above or below them.

Tested on: α7 integrin promoter
Assay: muscle cell-based assay: α7βgal+/− myoblasts/myotubes, LacZ reporter, β-galactosidase cleavage of FDG
Design: species or system mouse; Results in α7+/− β-galactosidase assay: scale not given here
Conditions: for Fit Curve Class: key not given; for Results in a α7+/− β-galactosidase assay, Myotubes, 0.5 uM: compound at 0.5 uM; for Results in a α7+/− β-galactosidase assay, Myotubes, 1 uM: compound at 1 uM; for Results in a α7+/− β-galactosidase assay, Myotubes, 5 uM: compound at 5 uM; for Results in a α7+/− β-galactosidase assay, Myotubes, 10 uM: compound at 10 uM; for Results in a α7+/− β-galactosidase assay, Myotubes, 20 uM: compound at 20 uM; for Results in a α7+/− β-galactosidase assay, Myotubes, 40 uM: compound at 40 uM; for AC50: log of AC50, given with negative sign, unit of AC50 not given, read-out: Fit Log AC50 (converted)
Protocol: An α7 integrin null mouse was produced in which exon 1 of the gene encoding the α7 integrin was replaced by the LacZ reporter. In these mice, all the transcriptional regulatory elements of the α7 integrin promoter were retained, allowing β-galactosidase to report expression of 7 integrin. A primary myoblast cell line (designated α7βgal^+/−) isolated from 10 day old α7^+/− pups were analyzed for the ability of β-galactosidase to report α7 integrin expression. α7βgal^+/− myoblasts were differentiated and subjected to X-gal staining and western analysis (FIGS. 1A and 1B).
The activity of the α7 integrin promoter was measured by β-galactosidase cleavage of the non-fluorescent compound fluorescein di-β-D-galactopyranoside (FDG) to fluorescein. This assay was used to screen compound libraries to identify molecules that up-regulate α7 integrin expression in muscle.
Also evaluated was the effect of various isoforms of laminin and the ligand for α7β1 integrin on integrin expression. Positive hits were subjected to dose-response analysis, western analysis and a myostatin counterscreen (a negative regulator of muscle growth).

[1] = curve fit, activity at zero concentration
[2] = Table 12, fitted activity at zero concentration
[3] = Table 12 Compound data, concentration-response curve fit

Compound: COc1ccc(N2CCN(CCC3Oc4cc([N+](=O)[O-])ccc4NC3=O)CC2)cc1 (stereo not shown) [Compound 194]
Score (Table 12 compound data): 42
Fit Curve Class (curve class number): 2.2
Fit HillSlope (curve fit): 1.7137
Fit Infinite Activity [%] (curve fit, activity at infinite concentration): 73.9084%
Fit Zero Activity [%] [1]: −2.9581%
Fit LogAC50 (given as log AC50 (negative values)): −5.05

EC50 (Mus musculus, given as log AC50 (negative values), read-out: Fit LogAC50 (converted)): 11.2 µM
Compound: CN(C#N)c1nccc(-c2cccs2)n1 [Compound 190]
Score (Table 12 compound data): 42
Fit Curve Class (curve class number): 2.1
Fit HillSlope (curve fit): 2.0937
Fit Zero Activity [%] [1]: −28.9068%

Compound: Cc1cc(C)c(/C=C2\C(=O)Nc3ccccc32)[nH]1 [drawing 513]
Results in α7+/− β-galactosidase assay (Myotubes, 0.5 uM): −0.1009
Results in α7+/− β-galactosidase assay (Myotubes, 1 uM): −0.09355
Results in α7+/− β-galactosidase assay (Myotubes, 5 uM): 0.09724
Results in α7+/− β-galactosidase assay (Myotubes, 10 uM): 1.02
Results in α7+/− β-galactosidase assay (Myotubes, 20 uM): 0.05028
Results in α7+/− β-galactosidase assay (Myotubes, 40 uM): 0.1378

Compound: Cc1cccc(Cn2cnc3c(nnn3Cc3ccc(Cl)cc3)c2=O)c1 [drawing 658]
Results in α7+/− β-galactosidase assay (Myoblasts, 0.5 uM): −0.04558
Results in α7+/− β-galactosidase assay (Myoblasts, 1 uM): 0.03537
Results in α7+/− β-galactosidase assay (Myoblasts, 5 uM): 0.1703
Results in α7+/− β-galactosidase assay (Myoblasts, 10 uM): −0.06567
Results in α7+/− β-galactosidase assay (Myoblasts, 20 uM): −0.2167
Results in α7+/− β-galactosidase assay (Myoblasts, 40 uM): −0.3491

Compound: COc1cccc(CN2CCN(Cc3ccco3)CC2)c1.O=C(O)C(=O)O [drawing 530]
Results in α7+/− β-galactosidase assay (Myoblasts, 0.5 uM): 0.2392
Results in α7+/− β-galactosidase assay (Myoblasts, 1 uM): 0.1359
Results in α7+/− β-galactosidase assay (Myoblasts, 5 uM): 0.06492
Results in α7+/− β-galactosidase assay (Myoblasts, 10 uM): −0.03174
Results in α7+/− β-galactosidase assay (Myoblasts, 20 uM): 0.218
Results in α7+/− β-galactosidase assay (Myoblasts, 40 uM): 0.2155

Compound: O=C1Nc2ccccc2/C1=C\c1cccn1-c1ccc(OC(F)(F)F)cc1 [drawing 445]
Results in a α7+/− β-galactosidase assay, Myotubes, 0.5 uM (Myotubes): 0.0705
Results in a α7+/− β-galactosidase assay, Myotubes, 1 uM (Myotubes): 0.06007
Results in a α7+/− β-galactosidase assay, Myotubes, 5 uM (Myotubes): 0.1996
Results in a α7+/− β-galactosidase assay, Myotubes, 10 uM (Myotubes): −0.05189
Results in a α7+/− β-galactosidase assay, Myotubes, 20 uM (Myotubes): −0.1444
Results in a α7+/− β-galactosidase assay, Myotubes, 40 uM (Myotubes): −0.2888

Compound: O=C(O)C(Cc1ccc(O)cc1)N1C(=O)c2ccccc2C1=O (stereo not shown) [drawing 619]
Results in α7+/− β-galactosidase assay (Myoblasts, 0.5 uM): 0.1486
Results in α7+/− β-galactosidase assay (Myoblasts, 1 uM): 0.2007
Results in α7+/− β-galactosidase assay (Myoblasts, 5 uM): 0.1591
Results in α7+/− β-galactosidase assay (Myoblasts, 10 uM): −0.04895
Results in α7+/− β-galactosidase assay (Myoblasts, 20 uM): 0.03548
Results in α7+/− β-galactosidase assay (Myoblasts, 40 uM): 0.007087

Compound: O=C(Cn1cccc1C(=O)c1ccccc1)NCCCc1ccccc1 [Compound 43]
AC50 (Mus musculus, Table 12): 3.98 µM
Emax (Mus musculus, read-out: Max Response [%]): 131%
Fit HillSlope (Table 12, curve fit): 0.9
Fit Zero Activity [%] [2]: 0%
Fit Curve Class (Table 12): 2.1
Score [3]: 47

Compound: COCCn1c(=N)c(S(=O)(=O)c2ccc(Br)cc2)cc2c(=O)n3ccccc3nc21 [Compound 96]
AC50 (Mus musculus, Table 12): 4.47 µM
Fit HillSlope (Table 12, curve fit): 1.9887
Fit Zero Activity [%] [2]: −8.0822%
Fit Curve Class (Table 12): 2.2
Score [3]: 43

Compound: COc1cccc(C(=O)COc2ccc3ccc(=O)oc3c2)c1 [drawing 363]
Results in a α7+/− β-galactosidase assay, Myotubes, 0.5 uM (Myotubes): 0.3069
Results in a α7+/− β-galactosidase assay, Myotubes, 1 uM (Myotubes): 0.2317
Results in a α7+/− β-galactosidase assay, Myotubes, 5 uM (Myotubes): 0.07669
Results in a α7+/− β-galactosidase assay, Myotubes, 10 uM (Myotubes): 0.03997
Results in a α7+/− β-galactosidase assay, Myotubes, 20 uM (Myotubes): −0.3325
Results in a α7+/− β-galactosidase assay, Myotubes, 40 uM (Myotubes): −0.3127

Compound: CCN(CC)CCNC(=O)c1c(C)[nH]c(CC2C(=O)Nc3ccc(F)cc32)c1C (stereo not shown) [drawing 715]
Result in α7+/− β-galactosidase assay (Myoblasts, 0.5 uM): −0.1627
Result in α7+/− β-galactosidase assay (Myoblasts, 1 uM): 0.03203
Result in α7+/− β-galactosidase assay (Myoblasts, 5 uM): −0.6776
Result in α7+/− β-galactosidase assay (Myoblasts, 10 uM): −0.9863
Result in α7+/− β-galactosidase assay (Myoblasts, 20 uM): −0.9859
Result in α7+/− β-galactosidase assay (Myoblasts, 40 uM): −0.9872
